Melting point data for 23 compounds are collected here from US8399462B2, “JNK modulators” (Roche Palo Alto LLC, priority 2006, dated 2013).

Compound `Cl.N[C@H]1CC[C@H](Nc2nccc(-n3ccc4c(F)cccc43)n2)CC1` yielded a melting point of more than 300 °C. Next, `CS(=O)(=O)CCCOc1cccc2c1ccn2-c1ccnc(N[C@H]2CC[C@H](N)CC2)n1.Cl`: 291 to 292 °C. To `CS(=O)(=O)CCCOc1cccc2c1ccn2-c1ccnc(N[C@H]2CC[C@H](NC(=O)CCN)CC2)n1.Cl` belongs 263 to 264 °C; to `CS(=O)(=O)CCCOc1cccc2c1ccn2-c1ccnc(N[C@H]2CC[C@H](CN)CC2)n1.Cl`, 292 to 293 °C; to `Cl.NC[C@H]1CC[C@H](Nc2nccc(-n3ccc4c(OCCCC(F)(F)F)cccc43)n2)CC1`, 274 to 275 °C. Next, `CS(=O)(=O)CCCOc1cccc2c1ccn2-c1ccnc(N[C@H]2CC[C@H](C(=O)N3CCC(=O)CC3)CC2)n1`: 155 to 158.2 °C; `CC1(C)OC[C@@H](COc2cccc3c2cnn3-c2ccnc(N[C@H]3CC[C@H](O)CC3)n2)O1` (stereo in doubt) [Compound 98, 4-{4-[4-(2,2-dimethyl-[1,3]dioxolan-4-ylmeth-oxy)-indazol-1-yl]-pyrimidin-2-ylamino}-cyclohexanol]: 189.2 to 190 °C; `CC1(C)OC[C@@H](COc2cccc3c2cnn3-c2ccnc(N[C@H]3CC[C@H](C(=O)N4CCCC4)CC3)n2)O1` (stereo in doubt) [Compound 127, (4-{4-[4-(2,2-dimethyl-[1,3]dioxolan-4-yl-methoxy)-indazol-1-yl]-pyrimidin-2-ylamino}-cyclohexyl)-pyrrolidin-1-ylmethanone]: 196 to 198 °C. For the compound `CC1(C)OC[C@@H](COc2cccc3c2cnn3-c2ccnc(N[C@H]3CC[C@H](NS(C)(=O)=O)CC3)n2)O1` (stereo in doubt) [Compound 128, N-(4-{4-[4-(2,2-di-methyl[1,3]dioxolan-4-ylmethoxy)-indazol-1-yl]-pyrimidin-2-yl-amino}-cyclohexyl)-methanesulfonamide], the melting point was 247 to 247.8 °C. To `CC(=O)N[C@H]1CC[C@H](Nc2nccc(-n3ncc4c(OC[C@@H]5COC(C)(C)O5)cccc43)n2)CC1` (stereo in doubt) [Compound 131, N-(4-{4-[4-(2,2-di-methyl[1,3]dioxolan-4-ylmethoxy)-indazol-1-yl]-pyrimidin-2-yl-amino}-cyclohexyl)-acetamide] belongs 214.5 to 215.5 °C; to `CC1(C)OC[C@@H](COc2cccc3c2cnn3-c2ccnc(N[C@H]3CC[C@H](C(C)(C)O)CC3)n2)O1` (stereo in doubt) [Compound 132, 2-(4-{4-[4-(2,2-di-methyl[1,3]dioxolan-4-ylmethoxy)-indazol-1-yl]-pyrimidin-2-yl-amino}-cyclohexyl)-propan-2-ol], 178.5 to 180 °C; to `O=C([C@H]1CC[C@H](Nc2nccc(-n3ncc4c(OC[C@@H](O)CO)cccc43)n2)CC1)N1CCCC1` (stereo in doubt) [Compound 153, (4-{4-[4-(2,3-dihydroxy-propoxy)-indazol-1-yl]-pyrimidin-2ylamino}-cyclohexyl)-pyrrolidin-1-ylmethanone], 166 to 167 °C. Consider `CC(=O)N[C@H]1CC[C@H](Nc2nccc(-n3ncc4c(OC[C@@H](O)CO)cccc43)n2)CC1` (stereo in doubt) [Compound 154, N-(4-{4-[4-(2,3-di-hydroxy-propoxy)-indazol-1-yl]-pyrimidin-2-ylamino}-cyclohexyl)-acetamide], for which the melting point is 202 to 205 °C. For `C[C@@H](CO)COc1cccc2c1cnn2-c1ccnc(N[C@H]2CC[C@H](C(=O)N3CCCC3)CC2)n1` (stereo in doubt) [Compound 171, (4-{4-[4-(3-hydroxy-2-methylpropoxy)-indazol-1-yl]-pyrimidin-2-ylamino}-cyclohexyl)-pyrrolidin-1-ylmethanone], the melting point lay in the range of 199.4 to 200.4 °C. Next, `CC(=O)N[C@H]1CC[C@H](Nc2nccc(-n3ncc4c(OC[C@@H](C)CO)cccc43)n2)CC1` (stereo in doubt) [Compound 172, N-(4-{4-[4-(3-hydroxy-2-methylpropoxy)-indazol-1-yl]-pyrimidin-2-ylamino}-cyclohexyl)-acetamide]: 215 to 216 °C. Next, `C[C@@H](CO)COc1cccc2c1cnn2-c1ccnc(N[C@H]2CC[C@H](C(C)(C)O)CC2)n1` (stereo in doubt) [Compound 185, 3-(1-{2-[4-(2-hydroxy-prop-2-yl)-cyclohexyl-amino]-pyrimidin-4-yl}-1H-indazol-4-yloxy)-2-methylpropan-1-ol]: 211 to 212.5 °C.

The compound `C[C@@H](CO)COc1cccc2c1cnn2-c1ccnc(N[C@H]2CC[C@H](N(C)S(C)(=O)=O)CC2)n1` (stereo in doubt) [Compound 186, N-(4-{4-[4-(3-hydroxy-2-methylpropoxy)-indazol-1-yl]-pyrimidin-2-ylamino}-cyclohexyl)-N-methyl-methanesulfonamide] displayed a melting point of 222 to 224 °C.

Turning to `CS(=O)(=O)C[C@H](O)COc1cccc2c1cnn2-c1ccnc(N[C@H]2CC[C@H](O)CC2)n1` (stereo in doubt) [Compound 198, 4-{4-[4-(2-hydroxy-3-methanesulfonyl-propoxy)-indazol-1-yl]-pyrimidin-2-ylamino}-cyclohexanol], the melting point was 211 to 212 °C.

Take `CS(=O)(=O)CCCOc1cccc2c1cnn2-c1ccnc(N[C@H]2CC[C@H](C(=O)N3CC[C@@H](O)C3)CC2)n1` (stereo in doubt) [Compound 216, (3-hydroxy-pyrrolidin-1-yl)-(4-{4-[4-(3-methane-sulfonyl-propoxy)-indazol-1-yl]-pyrimidin-2-ylamino}-cyclohexyl)-methanone]: the melting point lay within 174 to 175 °C.

As for `CS(=O)(=O)CCCOc1cccc2c1cnn2-c1ccnc(N[C@H]2CC[C@H](C(=O)N3CC[C@H](O)C3)CC2)n1` (stereo in doubt) [Compound 217, (3-hydroxy-pyrrolidin-1-yl)-(4-{4-[4-(3-methane-sulfonyl-propoxy)-indazol-1-yl]-pyrimidin-2-ylamino}-cyclohexyl)-methanone], the melting point fell in the range of 175 to 176 °C. To `CS(=O)(=O)C[C@H](O)COc1cccc2c1cnn2-c1ccnc(N[C@H]2CC[C@H](C(=O)N3CCC(O)CC3)CC2)n1` (stereo in doubt) [Compound 234, (4-{4-[4-(2-hydroxy-3-methanesulfonyl-propoxy)-indazol-1-yl]-pyrimidin-2-ylamino}-cyclohexyl)-(4-hydroxy-piperidin-1-yl)-methanone] belongs 232 to 233 °C; to `NS(=O)(=O)CCCOc1cccc2c1cnn2-c1ccnc(N[C@H]2CC[C@H](C(=O)N3CC[C@H](O)C3)CC2)n1` (stereo in doubt) [Compound 252, 3-(1-{2-[4-(3-hydroxy-pyrrolidine-1-carbonyl)-cyclohexylamino]-pyrimidin-4-yl}-1H-indazol-4-yloxy)-propane-1-sulfonic acid amide], 161 to 162 °C; to `NS(=O)(=O)CCCOc1cccc2c1cnn2-c1ccnc(N[C@H]2CC[C@H](C(=O)N3CC[C@@H](O)C3)CC2)n1` (stereo in doubt) [Compound 253, 3-(1-{2-[4-(3-hydroxy-pyrrolidine-1-carbonyl)-cyclohexylamino]-pyrimidin-4-yl}-1H-indazol-4-yloxy)-propane-1-sulfonic acid amide], 178 to 179 °C.

The melting point is the temperature of the solid-liquid transition.
